Like-named read-outs stand apart in the source and are kept apart here.
Legend:
[1] = Solubility of the free base of the compound of Formula I in solvents and mixed solvent systems; format: physicochemical; conditions: for solubility: thermodynamic from solid
Description: The solubility was also determined in mixed solvent systems such as DCM/EtOH, DMSO/EtOH, DMSO/water, THF/EtOH, and THF/water.
The solubility studies were conducted as follows. […] The samples were then heated to 60° C. Should the solids dissolve on heating, more freebase was added in 3 to 5 mg portions.

[2] = Screen of conditions for sulfuric and phosphoric acid salts of Formula I (freebase solubility observations); format: physicochemical; conditions: 25° C.
Description: The use of sulfuric acid in 4:1 DCM/EtOH provided a filterable solid after stirring overnight.

## COc1ccc(CN2CCN(c3ccc(-c4cc(-c5cnn(C)c5)cn5ncc(C#N)c45)cn3)CC2)cn1 [freebase of the compound of Formula I, 4-(6-(4-((6-methoxypyridin-3-yl)methyl)piperazin-1-yl)pyridin-3-yl)-6-(1-methyl-1H-pyrazol-4-yl)pyrazolo[1,5-a]pyridine-3-carbonitrile]
[1]; 0.1M HCl, 25 °C, simulated gastric fluid, read-out: Solubility at 25° C.
  solubility: 1500 µg/mL
[1]; 10% THF in H2O, 25 °C, aqueous with cosolvent or surfactant or cyclodextrin, title: THF/H2O at room temperature, head: % THF in EtOH = 10, read-out: Solubility
  solubility: 150 µg/mL
[1]; 20% THF in H2O, 25 °C, aqueous with cosolvent or surfactant or cyclodextrin, title: THF/H2O at room temperature, head: % THF in EtOH = 20, read-out: Solubility
  solubility: 130 µg/mL
[1]; 25 °C, aqueous with cosolvent or surfactant or cyclodextrin, 20% DMSO in H2O, room temperature, read-out: Solubility
  solubility: 80 µg/mL
[1]; 25 °C, aqueous with cosolvent or surfactant or cyclodextrin, 30% DMSO in H2O, room temperature, read-out: Solubility
  solubility: 90 µg/mL
[1]; 25 °C, aqueous with cosolvent or surfactant or cyclodextrin, 40% DMSO in H2O, room temperature, read-out: Solubility
  solubility: 100 µg/mL
[1]; 25 °C, aqueous with cosolvent or surfactant or cyclodextrin, 50% DMSO in H2O, room temperature, read-out: Solubility
  solubility: 90 µg/mL
[1]; 25 °C, aqueous with cosolvent or surfactant or cyclodextrin, 60% DMSO in H2O, room temperature, read-out: Solubility
  solubility: 100 µg/mL
[1]; 25 °C, aqueous with cosolvent or surfactant or cyclodextrin, 70% DMSO in H2O, room temperature, read-out: Solubility
  solubility: 150 µg/mL
[1]; 25 °C, aqueous with cosolvent or surfactant or cyclodextrin, 80% DMSO in H2O, room temperature, read-out: Solubility
  solubility: 350 µg/mL
[1]; 25 °C, aqueous with cosolvent or surfactant or cyclodextrin, 90% DMSO in H2O, room temperature, read-out: Solubility
  solubility: 1520 µg/mL
[1]; 25 °C, organic solvent or mixture, 20% DCM in EtOH, room temperature, read-out: Solubility
  solubility: 260 µg/mL
[1]; 25 °C, organic solvent or mixture, 20% DMSO in EtOH, room temperature, read-out: Solubility
  solubility: 180 µg/mL
[1]; 25 °C, organic solvent or mixture, 20% THF in EtOH, room temperature, read-out: Solubility
  solubility: 340 µg/mL
[1]; 25 °C, organic solvent or mixture, 30% DCM in EtOH, room temperature, read-out: Solubility
  solubility: 870 µg/mL
[1]; 25 °C, organic solvent or mixture, 30% DMSO in EtOH, room temperature, read-out: Solubility
  solubility: 390 µg/mL
[1]; 25 °C, organic solvent or mixture, 30% THF in EtOH, room temperature, read-out: Solubility
  solubility: 550 µg/mL
[1]; 25 °C, organic solvent or mixture, 40% DCM in EtOH, room temperature, read-out: Solubility
  solubility: 2530 µg/mL
[1]; 25 °C, organic solvent or mixture, 40% DMSO in EtOH, room temperature, read-out: Solubility
  solubility: 610 µg/mL
[1]; 25 °C, organic solvent or mixture, 40% THF in EtOH, room temperature, read-out: Solubility
  solubility: 820 µg/mL
[1]; 25 °C, organic solvent or mixture, 50% DCM in EtOH, room temperature, read-out: Solubility
  solubility: 7420 µg/mL
[1]; 25 °C, organic solvent or mixture, 50% DMSO in EtOH, room temperature, read-out: Solubility
  solubility: 1140 µg/mL
[1]; 25 °C, organic solvent or mixture, 50% THF in EtOH, room temperature, read-out: Solubility
  solubility: 1380 µg/mL
[1]; 25 °C, organic solvent or mixture, 60% DCM in EtOH, room temperature, read-out: Solubility
  solubility: 16600 µg/mL
[1]; 25 °C, organic solvent or mixture, 60% DMSO in EtOH, room temperature, read-out: Solubility
  solubility: 1800 µg/mL
[1]; 25 °C, organic solvent or mixture, 60% THF in EtOH, room temperature, read-out: Solubility
  solubility: 1970 µg/mL
[1]; 25 °C, organic solvent or mixture, 70% DCM in EtOH, room temperature, read-out: Solubility
  solubility: 22700 µg/mL
[1]; 25 °C, organic solvent or mixture, 70% DMSO in EtOH, room temperature, read-out: Solubility
  solubility: 2570 µg/mL
[1]; 25 °C, organic solvent or mixture, 70% THF in EtOH, room temperature, read-out: Solubility
  solubility: 2510 µg/mL
[1]; 25 °C, organic solvent or mixture, 80% DCM in EtOH, room temperature, read-out: Solubility
  solubility: 29000 µg/mL
[1]; 25 °C, organic solvent or mixture, 80% DMSO in EtOH, room temperature, read-out: Solubility
  solubility: 4280 µg/mL
[1]; 25 °C, organic solvent or mixture, 80% THF in EtOH, room temperature, read-out: Solubility
  solubility: 3090 µg/mL
[1]; 25 °C, organic solvent or mixture, 90% DCM in EtOH, room temperature, read-out: Solubility
  solubility: 34200 µg/mL
[1]; 25 °C, organic solvent or mixture, 90% DMSO in EtOH, room temperature, read-out: Solubility
  solubility: 4440 µg/mL
[1]; 25 °C, organic solvent or mixture, 90% THF in EtOH, room temperature, read-out: Solubility
  solubility: 3180 µg/mL
[1]; 25 °C, organic solvent or mixture, 100% DMSO in EtOH, room temperature, read-out: Solubility
  solubility: 6960 µg/mL
[1]; 30% THF in H2O, 25 °C, aqueous with cosolvent or surfactant or cyclodextrin, title: THF/H2O at room temperature, head: % THF in EtOH = 30, read-out: Solubility
  solubility: 350 µg/mL
[1]; 40% THF in H2O, 25 °C, aqueous with cosolvent or surfactant or cyclodextrin, title: THF/H2O at room temperature, head: % THF in EtOH = 40, read-out: Solubility
  solubility: 1360 µg/mL
[1]; 50% THF in H2O, 25 °C, aqueous with cosolvent or surfactant or cyclodextrin, title: THF/H2O at room temperature, head: % THF in EtOH = 50, read-out: Solubility
  solubility: 2500 µg/mL
[1]; 60% THF in H2O, 25 °C, aqueous with cosolvent or surfactant or cyclodextrin, title: THF/H2O at room temperature, head: % THF in EtOH = 60, read-out: Solubility
  solubility: 3760 µg/mL
[1]; 70% THF in H2O, 25 °C, aqueous with cosolvent or surfactant or cyclodextrin, title: THF/H2O at room temperature, head: % THF in EtOH = 70, read-out: Solubility
  solubility: 6170 µg/mL
[1]; 80% THF in H2O, 25 °C, aqueous with cosolvent or surfactant or cyclodextrin, title: THF/H2O at room temperature, head: % THF in EtOH = 80, read-out: Solubility
  solubility: 6650 µg/mL
[1]; 90% THF in H2O, 25 °C, aqueous with cosolvent or surfactant or cyclodextrin, title: THF/H2O at room temperature, head: % THF in EtOH = 90, read-out: Solubility
  solubility: 6560 µg/mL
[1]; 100% DMSO (DMSO/H2O series), 25 °C, organic solvent or mixture, 100% DMSO in H2O, room temperature, read-out: Solubility
  solubility: 6960 µg/mL
[1]; 100% THF (THF/EtOH series), 25 °C, organic solvent or mixture, 100% THF in EtOH, room temperature, read-out: Solubility
  solubility: 2590 µg/mL
[1]; 100% THF (THF/H2O series), 25 °C, organic solvent or mixture, title: THF/H2O at room temperature, head: % THF in EtOH = 100, read-out: Solubility
  solubility: 2590 µg/mL
[1]; ACN
  Solids dissolve at 60° C.?: No
[1]; ACN, 25 °C, organic solvent or mixture, read-out: Solubility at 25° C.
  solubility: 330 µg/mL
[1]; DCE, 25 °C, organic solvent or mixture, read-out: Solubility at 25° C.
  solubility: 4600 µg/mL
[1]; EtOAc
  Solids dissolve at 60° C.?: No
[1]; EtOAc, 25 °C, organic solvent or mixture, read-out: Solubility at 25° C.
  solubility: 360 µg/mL
[1]; EtOH
  Solids dissolve at 60° C.?: No
[1]; EtOH, 25 °C, organic solvent or mixture, read-out: Solubility at 25° C.
  solubility: 40 µg/mL
[1]; IPA
  Solids dissolve at 60° C.?: No
[1]; MEK
  Solids dissolve at 60° C.?: No
[1]; MEK, 25 °C, organic solvent or mixture, read-out: Solubility at 25° C.
  solubility: 690 µg/mL
[1]; MeOH
  Solids dissolve at 60° C.?: No
[1]; MeOH, 25 °C, organic solvent or mixture, read-out: Solubility at 25° C.
  solubility: 70 µg/mL
[1]; THF
  Solids dissolve at 60° C.?: Yes
[1]; THF (1 mL), 60° C., solution turned milky at 13 mg
  freebase dissolved in THF at 60° C.: 10 to 13 mg
[1]; acetone
  Solids dissolve at 60° C.?: No
[1]; acetone, 25 °C, organic solvent or mixture, read-out: Solubility at 25° C.
  solubility: 440 µg/mL
[1]; aqueous with cosolvent or surfactant or cyclodextrin, 10% DMSO in H2O, room temperature, read-out: Solubility
  solubility: 90 µg/mL
[1]; iPAc
  Solids dissolve at 60° C.?: No
[1]; iPAc, 25 °C, organic solvent or mixture, read-out: Solubility at 25° C.
  solubility: 250 µg/mL
[1]; organic solvent or mixture, 0% DCM in EtOH, room temperature, read-out: Solubility
  solubility: 50 µg/mL
[1]; organic solvent or mixture, 0% DMSO in EtOH, room temperature, read-out: Solubility
  solubility: 50 µg/mL
[1]; organic solvent or mixture, 10% DCM in EtOH, room temperature, read-out: Solubility
  solubility: 60 µg/mL
[1]; organic solvent or mixture, 10% DMSO in EtOH, room temperature, read-out: Solubility
  solubility: 90 µg/mL
[1]; organic solvent or mixture, 10% THF in EtOH, room temperature, read-out: Solubility
  solubility: 290 µg/mL
[1]; organic solvent or mixture, 100% DCM in EtOH, room temperature, read-out: Solubility
  solubility: 17300 µg/mL
[1]; organic solvent or mixture, DMA, 60° C., read-out: Solubility at 60° C.
  solubility: > 40000 µg/mL
[1]; organic solvent or mixture, THF, 60° C., read-out: Solubility at 60° C.
  solubility: 10200 to 13000 µg/mL
[1]; toluene
  Solids dissolve at 60° C.?: No
[1]; toluene, 25 °C, organic solvent or mixture, read-out: Solubility at 25° C.
  solubility: 350 µg/mL
[1]; water, 25 °C, water, read-out: Solubility at 25° C.
  solubility: 70 µg/mL
[2]; 4:1 DCM/EtOH (100 vol)
  Solubility (in words): dissolve
[2]; THF, EtOH, and 1:1 DCM/EtOH (100 vol)
  Solubility (in words): limited solubility

From patent US10584124B2, “Crystalline forms” (Array BioPharma Inc., priority 2017, dated 2020)
